# Experimental data as given in patent US20250368628A1, “METHODS AND COMPOUNDS FOR MODULATING INHERITED GENETIC DISEASES” (Design Therapeutics, Inc., priority 2022, published 2025).
# Read-outs that look alike come from different tables or passages of the source.
# Key:
# F35T cells = experiment: Foci reduction in FECD (CAG10-Cy3 FISH, foci per nucleus); assay type: cell-based
# How it was run: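 F35T cells, 5000 per well, were treated for 48 h at 37 °C, 5% CO2 in an 8-point dose response. Cells were then fixed in 4% PFA, permeabilized in 70% ethanol and hybridized overnight at 37 °C with a CAG10-Cy3 probe in 30% formamide/2×SSC. After DAPI staining, imaging gave foci per nucleus.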
# [1] = system: Myotonic Dystrophy 1 affected patient fibroblasts (Coriel GM04602; 1600 CTG repeats); experiment: DM1 foci reduction assay (EC50 assay; CAG10-Cy3 FISH, foci per nucleus); assay type: cell-based
# How it was run: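 GM04602 DM1 patient fibroblasts (1600 CTG repeats) seeded 24 h, then treated 48 h at 37 °C with an 8-point 1:3 dose series from 3 μM. Cells PFA-fixed, ethanol-permeabilized and hybridized overnight with 5 nM CAG10-Cy3 probe, DAPI counterstained. Imaged at 20×, 4 fields per well, as average foci per nucleus.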
# [2] = F35T cells, 48 h treatment, foci per nucleus; read-out: FECD EC50, 48 h
# [3] = Homo sapiens, Fibroblast; DM1 patient fibroblasts, 48 h treatment, foci per nucleus; read-out: DM1 EC50, 48 h
# [4] = F35T cells, foci per nucleus, 48 h treatment; read-out: FECD EC50, 48 h
# [5] = Homo sapiens, Fibroblast; DM1 patient fibroblasts, foci per nucleus, 48 h treatment; read-out: DM1 EC50, 48 h
SMILES,EC50 (F35T cells; [2]) [nM],"EC50 [1, 3] [nM]",EC50 (F35T cells; [4]) [nM],"EC50 [1, 5] [nM]"
CCOC(=O)c1nc(NC(=O)c2cc(NC(=O)CCNC(=O)c3nc(NC(=O)CCCNC(=O)c4cc(NC(=O)c5nc(NC(=O)CCNC(=O)c6cc(NC(=O)c7nccn7C)cn6C)cn5C)cn4CCCCCCn4cc(COCCOCCOCCOC)nn4)cn3C)cn2C)cn1C [Compound B-374],> 1000,> 1000,–,–
CN1CC(C2CCN(C(=O)CCNC(=O)c3nc(NC(=O)c4cc(NC(=O)CCNC(=O)c5nc(NC(=O)CCCNC(=O)c6cc(NC(=O)c7nc(NC(=O)CCNC(=O)c8cc(NC(=O)c9nccn9C)cn8C)cn7C)cn6C)cn5C)cn4C)cn3C)CC2)C1 [Compound B-143],100 to 500,100 to 500,–,–
CCCNC(=O)CCNC(=O)c1nc(NC(=O)c2cc(NC(=O)CCNC(=O)c3nc(NC(=O)CCCNC(=O)c4cc(NC(=O)c5nc(NC(=O)CCNC(=O)c6cc(NC(=O)c7nccn7C)cn6C)cn5C)cn4C)cn3C)cn2CCCCCCN)cn1C [Compound B-57],500 to 1000,100 to 500,–,–
CN(C)CCCCNC(=O)c1nc(NC(=O)c2cc(NC(=O)CCNC(=O)c3nc(NC(=O)C[C@@H](N)CNC(=O)c4cc(NC(=O)c5nc(NC(=O)CCNC(=O)c6cc(NC(=O)c7nccn7C)cn6C)cn5C)cn4C)cn3C)cn2C)cn1C [Compound B-422],–,–,> 1000,> 1000
C=C(NCCC(=O)Nc1cc(C(=O)Nc2cn(C)c(C(=O)NCCC(=O)N3CCC(C#CC#CC4CCN(C(C)=O)CC4)CC3)n2)n(C)c1)c1nc(NC(=O)CCCNC(=O)c2cc(NC(=O)c3nc(NC(=O)CCNC(=O)c4cc(NC(=O)c5nccn5C)cn4C)cn3C)cn2CCCn2cc(COCCOCCOCCOC)nn2)cn1C [Compound B-402],< 100,100 to 500,–,–
Cn1cc(NC(=O)c2nc(NC(=O)CCNC(=O)c3cc(NC(=O)c4nccn4C)cn3C)cn2C)cc1C(=O)NCCCC(=O)Nc1cn(C)c(C(=O)NCCC(=O)Nc2cc(C(=O)Nc3cn(C)c(C(=O)NCCCN(CC#Cc4ccc(C(=O)O)cc4)CCCN)n3)n(C)c2)n1 [Compound B-384],100 to 500,100 to 500,–,–
CCN(CC)CCCC[C@H](NC(C)=O)C(=O)Nc1ccc(OCCOCCOCCOCCOCCNC(=O)CCNC(=O)c2nc(NC(=O)c3cc(NC(=O)CCNC(=O)c4nc(NC(=O)CCCNC(=O)c5cc(NC(=O)c6nc(NC(=O)CCNC(=O)c7cc(NC(=O)c8nccn8C)cn7C)cn6C)cn5C)cn4C)cn3C)cn2C)cc1 [Compound B-146],100 to 500,100 to 500,–,–
Cn1cc(NC(=O)c2nc(NC(=O)CCNC(=O)c3cc(NC(=O)c4nccn4C)cn3C)cn2C)cc1C(=O)NCCCC(=O)Nc1cn(C)c(C(=O)NCCC(=O)Nc2cc(C(=O)Nc3cn(C)c(C(=O)NCCCNCC#Cc4ccc(C(=O)O)cc4)n3)n(C)c2)n1 [Compound B-249],< 100,100 to 500,–,–
CCCNC(=O)CCNC(=O)c1nc(NC(=O)c2cc(NC(=O)CCNC(=O)c3nc(NC(=O)CCCNC(=O)c4cc(NC(=O)c5nc(NC(=O)CCNC(=O)c6cc(NC(=O)c7nccn7C)cn6C)cn5C)cn4CCCCCCN=[N+]=[N-])cn3C)cn2C)cn1C [Compound B-58],< 100,< 100,–,–
CCCCCCn1cc(NC(=O)c2nc(NC(=O)CCNC(=O)c3cc(NC(=O)c4nccn4C)cn3C)cn2C)cc1C(=O)NCCCC(=O)Nc1cn(C)c(C(=O)NCCC(=O)Nc2cc(C(=O)Nc3cn(C)c(C(=O)NCCC(=O)N4CCN(C)CC4)n3)n(C)c2)n1 [Compound B-425],–,–,< 100,< 100
CCCNC(=O)c1nc(NC(=O)c2cc(NC(=O)CCNC(=O)c3nc(NC(=O)CCCNC(=O)c4cc(NC(=O)c5nc(NC(=O)CCNC(=O)c6cc(NC(=O)c7nccn7C)cn6C)cn5C)cn4C)cn3C)cn2C)cn1C [Compound B-43],< 100,< 100,–,–
